Values of other authors as cited in patent US20040028613A1, “Dopamine agonist formulations for enhanced central nervous system delivery” (Nastech Pharmaceutical Company Inc, priority 2001, published 2004).

How the values were obtained:
[1] = test system: ciliary function in epithelial cell cultures
[2] = intraduodenal, rats, with 1% (w/v) saline dispersion of polycarbophil
[3] = subcutaneous injection
[4] = test system: ciliary movement of human adenoid tissue; details: for time in which ciliary movement was inhibited / inhibitory effect on ciliary movement at the end of 60 mm: 0.3%
[5] = 2.5 mg to 3.5 mg, hypotension, nausea, vomiting, impaired vision, diaphoresis, ashen coloring
[6] = aqueous solution, physiologic pH

Compound: 2-alkyl-4-hydroxyquinolines [pyo compound]
- concentration producing ciliostasis / inhibiting ciliary motility [1]: 50 µg/mL

Compound: 9-desglycinamide, 8-arginine vasopressin
- increase of bioavailability compared to aqueous solution without polymer [2]: 3-5 fold

Compound: CN1CCc2cccc3c2[C@H]1Cc1ccc(O)c(O)c1-3 [SC Inj (ref. 1), apomorphine]
- CSF level at 20 min ([3]; prior art, patients): 1.08 ng/mL
- Plasma level at 20 min ([3]; prior art, patients): 25.04 ng/mL

Compound: CC(=O)OC1CC2(C)C(CC(O)C3C4(C)CCC(O)C(C)C4CCC32C)C1=C(CCCC(C)C)C(=O)NCCS(=O)(=O)O (stereo not drawn) [STDHF, sodium taurodihydrofusidate]
- inhibition of ciliary movement ([4]; concentration of 0.3%, at 60 minutes): total

Compound: CN1CCc2cccc3c2[C@H]1Cc1ccc(O)c(O)c1-3 [apomorphine]
- side effects of intranasal delivery [5]: extensive and serious side effects
- CSF levels of active drug as percentage of levels found in the plasma [3]: less than 5%

Compound: CC(C)CC(N)B(O)O (stereo not drawn) [boro-leucine]
- effectiveness in enzyme inhibition relative to bestatin (aminopeptidases): more than 100 times
- effectiveness in enzyme inhibition relative to puromycin (aminopeptidases): more than 1000 times

Compound: C[C@H](CCC(=O)O)[C@H]1CC[C@H]2[C@@H]3CC[C@@H]4C[C@H](O)CC[C@]4(C)[C@H]3C[C@H](O)[C@]12C [deoxycholate, deoxycholic acid]
- time in which ciliary movement was inhibited [4]: 20 mm

Compound: CCN(CC)/[N+]([O-])=N/O.CCNCC [diethylamine/NO]
- rate (time) of NO release [6]: < 3 min

Compound: NCCN(CCN)/[N+]([O-])=N/O [diethylenetriamine/NO (DETANO)]
- rate (time) of NO release [6]: approximately 20 hours

Compound: C[C@H](CCC(=O)NCC(=O)O)[C@H]1CC[C@H]2[C@@H]3[C@H](O)C[C@@H]4C[C@H](O)CC[C@]4(C)[C@H]3C[C@H](O)[C@]12C [glycocholate, glycocholic acid]
- inhibitory effect on ciliary movement at the end of 60 mm [4]: no inhibitory effect

Compound: C[C@H](CCC(=O)NCCS(=O)(=O)O)[C@H]1CC[C@H]2[C@@H]3[C@H](O)C[C@@H]4C[C@H](O)CC[C@]4(C)[C@H]3C[C@H](O)[C@]12C [taurocholate, taurocholic acid]
- inhibitory effect on ciliary movement at the end of 60 mm [4]: no inhibitory effect

Compound: Laureth-9
- time in which ciliary movement was inhibited [4]: 10 mm
